Test results as given in patent US20070082910A1, “Specific nad(p)h oxidase inhibitor” (Mitsubishi Pharma Corporation, priority 2003, published 2007).
Marks after values point to notes of the source that are not given here.

What was measured:
[1] = tested on: NAD(P)H oxidase in diabetic rat aorta; assay: NAD(P)H oxidase activity (superoxide anion production, lucigenin chemiluminescence) in aorta of streptozotocin diabetic rats after oral administration; assay type: in vivo; conditions: for inhibitory rate (%), NAD(P)H oxidase in diabetic rat aorta: once a day for 3 days
Protocol: Streptozotocin (40 mg/kg) dissolved in 0.05 M citric acid buffer (pH 4.5) was administered into the tail vein of male Wistar rats (Japan SLC) to prepare diabetic rats. At 1 week to 8 weeks from the intravenous injection of streptozotocin, blood was drawn from the tail vein using a capillary treated with heparin, which was immediately cooled with ice and centrifuged at 3000 rpm, 15 min, 4° C. to give serum. The blood glucose level was measured by enzyme assay using a glucose measurement kit “GLU neo sinotest” (sinotest) and a microplate reader (SPECTRA MAX250, Molecular Devices).
The NAD(P)H oxidase activity was measured by the following method, which was modified by the method of the David. G. Harrison et al. (J. Clin. Invest. 91, 2546-2551, 1993), at 4 days from the start of the test, with superoxide anion production in aorta as an index.
To be specific, normal rat or diabetic rat free of the above-mentioned treatment was exsanguinated from the abdominal aorta, their thoracic aorta was removed. The removed thoracic aorta was immersed in Krebs-Hepes buffer and marginal tissues were removed to prepare an about 5 mm ring specimen. This ring specimen was preincubate in Krebs-Hepes buffer at 37° C. for 10 min and transferred to Krebs-Hepes buffer containing 0.25 mM lucigenin (SIGMA). 500 μM NADH (SIGMA) was added and chemiluminescence value (chemiluminescence: unit RLU: relative light units) was measured using a luminometer (MULTI-BIOLUMAT LB9505C, Warrack.Berthold) at 37° C. for 10 min. The total value of chemiluminescence was calculated from the area under the curve (hereinafter to be referred to as “AUC”) drawn by plotting the chemiluminescence value (vertical axis) relative to the measurement time (horizontal axis). The measured total value of chemiluminescence was divided by the wet weight of the vascular ring specimen and standardized to the superoxide anion production per aorta unit weight.
The inhibitory rate (%) was calculated from the following formula: inhibitory rate (%)=100−[(A−C)/(B−C)]×100
wherein A was the standardized value of chemiluminescence of diabetic rat administered with the test compound, B was the standardized value of chemiluminescence of diabetic rat without administration of the test compound, and C was the standardized value of chemiluminescence of normal rat without administration of the test compound.

[2] = tested on: atherosclerosis rabbit model; assay: Atherosclerosis inhibitory effect in cholesterol-fed rabbits; assay type: in vivo; conditions: for lipid-deposition area (%), abdominal aorta / lipid-deposition area (%), thoracic aorta: 12 weeks, 0.67% cholesterol feed; for lipid-deposition area (%), abdominal aorta / lipid-deposition area (%), thoracic aorta / Plasma lipid concentration TC: mean ± standard error; for Plasma lipid concentration TC: 12 weeks from cholesterol-loading
Protocol: A 0.67% cholesterol-containing feed (40 g/kg/day) and compound A were given to male NZW rabbits (Japan SLC) for 12 weeks. Blood was drawn from the auricular vein using a heparinized capillary tube, and centrifuged at 3000 rpm for 10 min. The total cholesterol (hereinafter to be indicated as “TC”) value of the obtained plasma was measured by an enzyme assay using a measurement kit.
After 12 weeks, the carotid artery was peeled and removed with pentobarbital anesthesia, and exsanguinated to remove the aorta. The obtained carotid artery was immediately placed in Krebs buffer, the surrounding tissues were carefully removed, and the ring specimen was prepared trying not to damage endothelial cells. Then, the ring specimen was suspended in a Magnus tank filled with Krebs buffer at 37° C. under an air flow of 95% O2-5% CO2 mixed gas. The experiment was conducted after reaching a steady state by loading 2 g tension.
For the measurement of a relaxation response, the specimen was contracted in advance with norepinephrine, and when the contraction reached steady state, acetylcholine was cumulatively added. The vascular relaxation rate was determined based on the contraction induced by 10 μM norepinephrine as 100%.
Using a transducer (NIHON KOHDEN), tension was measured isometrically. The significant difference was tested for by variance analysis with two-way layout (Dunnett's method) relative to the control group.
The removed aorta was divided into arch aorta, thoracic aorta and abdominal aorta, fixed with 10% formalin buffer, photographed, the area of the lipid adhered to the aorta was measured and the proportion of the area of the lipid-deposition area relative to the area of aorta was determined.

[3] = tested on: leukocyte NADPH oxidase; assay: Effect on leukocyte NADPH oxidase (PMA-stimulated lucigenin chemiluminescence); assay type: cell-based, rat
Protocol: Blood was drawn from the abdominal aorta of normal male Wister rats (Japan SLC) and immediately mixed with an ice-cold lysis buffer at 42 mL of the buffer per 3 mL of the blood.
After 5 min, the mixture was centrifuged at 4° C., 1100 rpm for 5 min. The precipitate was suspended in an ice-cold Lysis buffer, and centrifuged again at 4° C., 1100 rpm for 5 min. This operation was repeated 3 times to obtain leukocytes. The obtained leukocytes were suspended in Krebs-Hepes buffer and the number of the cells was adjusted to 1×10^6/ml. 0.25 mM Lucigenin and the test agent were added, Phorbol 12-myristate 13-acetate (hereinafter to be indicated as “PMA”, SIGMA) was further added, and the chemiluminescence value was measured at 37° C. for 10 min.
The inhibitory rate (%) was calculated by the following formula: inhibitory rate (%)=100−[(A−C)/(B−C))×[…] wherein A is the total chemiluminescence value of the leukocyte suspension with the addition of the test compound, B is the total chemiluminescence value of the leukocyte suspension (control) without addition of the test compound, and C is the total chemiluminescence value of the leukocyte suspension without stimulation with PMA.

[4] = tested on: rat acute myocardial infarction model; assay: Rat left coronary artery-ligated myocardial infarction model; assay type: in vivo
From the text: Male SD rats (Japan SLC) were fixed in the dorsal position with ether anesthesia, and subjected to thoracotomy by vertical incision along the left sternal line according to the method by Selye H. et al. (Angiology, 1960, 11, 398) to expose the heart. The left coronary artery was ligated using a silk thread (No. 4) at 1-2 mm from the basal part, the heart was put back in place and quickly deaerated, and the chest was closed. The rat was confirmed to have myocardial infarction with an electrocardiograph (NIHON KOHDEN). The rat was exsanguinated to death from the abdominal aorta 24 hr after ligation. The heart was removed, and a circular cross-section at the center thereof was incubated in a solution of 1% 2,3,5-triphenyltetrazolium chloride (hereinafter to be indicated as “TTC”) in 0.1 M phosphate buffer for 20 min under light shielding. Thereafter, the section was fixed with formalin buffer, traced, and the areas of infarction region (TTC unstained region) and left ventricle were calculated. Immediately after coronary artery ligation, compound A was suspended in 1% CMC solution and orally administered to the rat.
The inhibitory rate was calculated by the following formula: [formula] [formula]
In addition, compound A (1 mg/kg) was orally administered at 15 min, 1 hr and 3 hr after ligation, and infarction inhibitory effect was examined.

[5] = 0.1 mg/kg oral immediately after coronary artery ligation, 24 hr
[6] = 0.3 mg/kg oral immediately after coronary artery ligation, 24 hr
[7] = 1 mg/kg oral immediately after coronary artery ligation, 24 hr
[8] = 1 mg/kg oral, 15 min after ligation
[9] = 1 mg/kg oral, 1 hr after ligation
[10] = 1 mg/kg oral, 3 hr after ligation

C[C@@H](Nc1nnc(-c2ccccc2)c2ccccc12)C1CCCCC1.O=C(O)/C=C\C(=O)O [compound A]
inhibitory rate (%), NAD(P)H oxidase in diabetic rat aorta ([1]; 1 mg/kg oral): 76.9% | inhibitory rate (%), NAD(P)H oxidase in diabetic rat aorta ([1]; 10 mg/kg oral): 105.8% | inhibitory rate (%), NAD(P)H oxidase activity in diabetic rat aorta (Table 2) ([1]; 10 mg/kg orally once a day for 3 days): 105.8% | chemiluminescence (×10^5 RLU/wet weight of aorta) ([1]; diabetic rat aorta, 10 mg/kg orally once a day for 3 days, mean ± standard error): 3.8 ± 0.6 ×10^5 RLU/wet weight of aorta | lipid-deposition area (%), abdominal aorta ([2]; 1 mg/kg): 25.4 ± 6.2 % | lipid-deposition area (%), thoracic aorta ([2]; 1 mg/kg): 62.1 ± 10.0 % | Plasma lipid concentration TC ([2]; 1 mg/kg): 1895.3 ± 244.6 mg/dL | lipid-deposition area (%), abdominal aorta ([2]; 10 mg/kg): 18.2 ± 2.2 % | lipid-deposition area (%), thoracic aorta ([2]; 10 mg/kg): 56.5 ± 10.5 % | Plasma lipid concentration TC ([2]; 10 mg/kg): 1887.9 ± 103.9 mg/dL | endothelial-dependent relaxation response of carotid artery by Ach ([2]; Ach 10^−8 to 10^−5 M, FIG. 1, result in words): significantly improved as compared to the control group | inhibitory rate (%), leukocyte NADPH oxidase ([3]; 1 μM, PMA-stimulated rat leukocytes, mean ± standard error): 2.4 ± 13.6% | inhibitory effect on leukocyte NADPH oxidase ([3]; result in words): did not show an inhibitory effect on leukocyte NADPH oxidase | infarction rate (%) [4, 5]: 40% | inhibitory rate (%) of infarction [4, 5]: 0% | infarction rate (%) [4, 6]: 17.2** % | inhibitory rate (%) of infarction [4, 6]: 57** % | infarction rate (%) [4, 7]: 6.3** % | inhibitory rate (%) of infarction [4, 7]: 84.3** % | infarction rate (%) [4, 8]: 10.5** % | inhibitory rate (%) of infarction [4, 8]: 73.8% | infarction rate (%) [4, 9]: 16.7** % | inhibitory rate (%) of infarction [4, 9]: 58.3% | infarction rate (%) [4, 10]: 29.3* % | inhibitory rate (%) of infarction [4, 10]: 26.8%
